Measured values: patent US5663197A, “2-(1-hydroxyethyl)-5-hydroxynaphtho[2,3-b]furan-4,9-dione and antitumor agents comprising this compound” (priority 1992, dated 1997)
Converted amounts (≈) assume the structure as drawn.

What was measured:
Format in all cases: cell-based
human lung cancer cells = experiment: In vitro antitumor test, human lung cancer cells (FIGS. 1-4)
Description: (§1) An appropriate amount of NFD was dissolved in DMSO to give a 1.0 mg/ml stock solution, which was diluted as necessary before use.
(§2) The following cells in the late logarithmic phase were harvested after treatment with trypsin (containing 0.25% trypsin and 0.02% EDTA; 37° C., 3 min) and used in the test: human lung adenocarcinoma cell lines A-549, VMRC-LCD and SK-LU-1, human lung squamous cell carcinoma Calu-1 cells, human colon adenocarcinoma WiDr cells, human prostate cancer LNCaP cells, human vaginal squamous cell carcinoma A-431 cells, human cervical carcinoma HeLa cells, human cholangiocarcinoma HuCC-T1 cells, mouse skin cancer melanoma B16 (M4) cells, human pancreatic carcinoma ASPC-1 cells, human neuroblastoma IMR-132 cells, human lung small cell carcinoma SCCH-194 cells, human uninary bladder carcinoma T24 cells, human renal cell carcinoma […] cells, human gastric cancer NUGC-2 cells, human thyroid carcinoma 8305C cells, human hepatoma HUH-7 cells, human ovarian carcinoma TYK-nu cells and human chorio carcinoma BeWo cells. […] These cells were plated onto a 96-well microplate at a density of 5-10×10^3 cells/cm^2 using DMEM or RPMI-1640 medium containing 10% fetal bovine serum and cultured for 24 hours in a conventional manner, after which a pre-determined amount of NFD dissolved in DMSO was added to each well. […]

[1] = system: Normal human peripheral blood lymphocytes; experiment: In vitro growth test on normal cells, peripheral blood lymphocytes
Description: as §1, §2

[2] = system: Human renal cell carcinoma VMRC-RCW cells; experiment: In vitro antitumor test (trypan blue exclusion viable cell count), VMRC-RCW
Description: as §1
as §2, with “cells. Suspension cultures of human breast cancer MRK-nu-1 cells, human malignant B-cell lymphoma cells and human chronic myelogenous leukemia K562 cells were used to harvest the cells to be used in the test.” for “cells.”, “well. Cultivation was continued, and the number of viable cells was counted after 24, 48 and 72 hours.” for “well.”
Growth inhibitory action and lethal activity of NFD on various types of malignant tumor cells and normal human cells listed above were evaluated by counting the number of viable cells in each well of the 96-well microplate. […]

[3] = system: Human malignant B-cell lymphoma cells; experiment: In vitro antitumor test (trypan blue exclusion viable cell count), malignant B-cell lymphoma; conditions: 72 h, three days exposure, read-out: LD50 (IC50), 50% growth-inhibitory dose
[4] = system: Human chronic myelogenous leukemia K562 cells; experiment: In vitro antitumor test (trypan blue exclusion viable cell count), K562; conditions: 72 h, three days exposure, read-out: LD50 (IC50), 50% growth-inhibitory dose
Description: as §1, §2

[5] = system: Human hepatoma HuH-7 cells; experiment: In vitro antitumor test (trypan blue exclusion viable cell count), HuH-7
Description: as §1, §2

[6] = system: Human pancreatic carcinoma ASPC-1 cells; experiment: In vitro antitumor test (trypan blue exclusion viable cell count), ASPC-1
Description: as §1, §2

SMILES: CC(O)c1cc2c(o1)C(=O)c1cccc(O)c1C2=O (stereo not shown) [NFD, 2-(1-hydroxyethyl)-5-hydroxynaphtho[2,3-b]furan-4,9-dione]
- concentration causing necrosis in almost all tumor cells (human lung cancer cells): 33.5 to 55.4 ng/mL
- IC (almost complete) (human lung cancer cells; Homo sapiens, read-out: concentration inhibiting growth almost completely): 0.0112 to 0.0168 µg/mL
- adverse effects on growth of normal cells ([1]; FIG. 26, at concentrations which cause necrosis in tumor cells): no adverse effects
- IC50 ([1]; Homo sapiens, Lymphocyte, 72 h, normal peripheral blood lymphocytes, three days exposure, read-out: LD50 (IC50), 50% growth-inhibitory dose): 0.084 µg/mL (≈ 0.325 µM)
- concentration causing necrosis in almost all tumor cells ([2]; FIG. 17): 50 ng/mL
- IC50 ([2]; Homo sapiens, 72 h, VMRC-RCW, three days exposure, read-out: LD50 (IC50), 50% growth-inhibitory dose): 0.019 µg/mL (≈ 0.0736 µM)
- IC (almost complete) ([2]; Homo sapiens, FIG. 17, read-out: concentration inhibiting growth almost completely): 0.017 µg/mL
- IC50 [3]: 0.0056 µg/mL (≈ 0.0217 µM)
- IC50 [4]: 0.014 µg/mL (≈ 0.0542 µM)
- IC50 ([5]; 72 h, HuH-7, three days exposure, read-out: LD50 (IC50), 50% growth-inhibitory dose): 0.0055 µg/mL (≈ 0.0213 µM)
- IC (almost complete) ([5]; Huh-7, FIG. 21, read-out: concentration inhibiting growth almost completely): 0.02 µg/mL
- IC50 ([6]; ASPC1, 72 h, ASPC-1, three days exposure, read-out: LD50 (IC50), 50% growth-inhibitory dose): 0.017 µg/mL (≈ 0.0658 µM)
- IC (almost complete) ([6]; ASPC1, FIG. 13, read-out: concentration inhibiting growth almost completely): 0.0335 µg/mL
